In patent US8088815B2, “Spiroindolinone pyrrolidines” (Hoffman-La Roche Inc., priority 2009, dated 2012):

Target: interaction between p53 and MDM2 proteins (Homo sapiens, UniProt Q00987)
Assay: HTRF assay of inhibition of the p53-MDM2 interaction (GST-MDM2 / biotinylated p53 peptide)
Format: binding
Settings: recombinant GST-tagged MDM2 and biotinylated p53 peptide, bsa:0.02%
Procedure: The ability of the compounds to inhibit the interaction between p53 and MDM2 proteins was measured by an HTRF (homogeneous time-resolved fluorescence) assay in which recombinant GST-tagged MDM2 binds to a peptide that resembles the MDM2-interacting region of p53. Binding of GST-MDM2 protein and p53-peptide (biotinylated on its N-terminal end) is registered by the FRET (fluorescence resonance energy transfer) between Europium (Eu)-labeled anti-GST antibody and streptavidin-conjugated Allophycocyanin (APC).
Add 10 uL diluted compounds (1:5 dilution in reaction buffer) to each well, mix by shaking. Add 20 uL biotinylated p53 peptide (180 nM working solution) in reaction buffer to each well and mix on shaker. Incubate at 37° C. for 1 h. Add 20 uL streptavidin-APC and Eu-anti-GST antibody mixture (6 nM Eu-anti-GST and 60 nM streptavidin-APC working solution) in TBS buffer with 0.2% BSA, shake at room temperature for 30 minutes and read using a TRF-capable plate reader at
665 and 615 nm (Victor 5, Perkin ElmerWallac). If not specified, the reagents were purchased from Sigma Chemical Co.

interaction between p53 and MDM2 proteins, sequence (Q00987 whole entry): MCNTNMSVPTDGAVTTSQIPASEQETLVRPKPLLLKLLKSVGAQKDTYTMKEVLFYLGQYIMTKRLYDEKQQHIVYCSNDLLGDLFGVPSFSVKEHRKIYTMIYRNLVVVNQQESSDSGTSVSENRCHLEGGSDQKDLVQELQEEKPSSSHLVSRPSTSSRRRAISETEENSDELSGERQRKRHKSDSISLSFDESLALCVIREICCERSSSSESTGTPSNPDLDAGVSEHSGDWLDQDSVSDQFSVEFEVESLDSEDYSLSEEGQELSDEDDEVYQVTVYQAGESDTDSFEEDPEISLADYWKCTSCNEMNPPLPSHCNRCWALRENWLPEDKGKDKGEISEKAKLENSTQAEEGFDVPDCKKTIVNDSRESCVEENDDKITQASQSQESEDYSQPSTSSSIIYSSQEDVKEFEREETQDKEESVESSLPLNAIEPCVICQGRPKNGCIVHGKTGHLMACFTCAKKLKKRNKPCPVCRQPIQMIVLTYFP

Row | SMILES | IC50
1 | CC(C)(C)C[C@@H]1N[C@@H](C(=O)Nc2ccn(CC(C)(C)O)n2)[C@H](c2cccc(Cl)c2F)[C@]12C(=O)Nc1cc(Cl)ccc12 (racemic) [Example 55, rac-(2′S,3′R,4′S,5′R)-6-chloro-4′-(3-chloro-2-fluoro-phenyl)-2′-(2,2-dimethyl-propyl)-2-oxo-1,2-dihydro-spiro[indole-3,3′-pyrrolidine]-5′-carboxylic acid [1-(2-hydroxy-2-methyl-propyl)-1H-pyrazol-3-yl]-amide trifluoroacetic acid] | 13 nM
2 | CC(C)(C)C[C@@H]1N[C@@H](C(=O)Nc2ccc(I)cc2)[C@H](c2cccc(Cl)c2F)[C@]12C(=O)Nc1cc(Cl)ccc12 (racemic) [Example 56, rac-(2′S,3′R,4′S,5′R)-6-chloro-4′-(3-chloro-2-fluoro-phenyl)-2′-(2,2-dimethyl-propyl)-2-oxo-1,2-dihydro-spiro[indole-3,3′-pyrrolidine]-5′-carboxylic acid (4-iodo-phenyl)-amide] | 19 nM
3 | COc1cc(C#N)ccc1NC(=O)[C@@H]1N[C@@H](CC(C)(C)C)[C@@]2(C(=O)Nc3cc(Cl)ccc32)[C@H]1c1cccc(Cl)c1F (racemic) [Example 58, rac-(2′S,3′R,4′S,5′R)-6-chloro-4′-(3-chloro-2-fluoro-phenyl)-2′-(2,2-dimethyl-propyl)-2-oxo-1,2-dihydro-spiro[indole-3,3′-pyrrolidine]-5′-carboxylic acid (4-cyano-2-methoxy-phenyl)-amide] | 23 nM
4 | COc1cc(C(N)=O)ccc1NC(=O)[C@@H]1N[C@@H](CC(C)(C)C)[C@@]2(C(=O)Nc3cc(Cl)ccc32)[C@H]1c1cccc(Cl)c1F (racemic) [Example 59, rac-(2′S,3′R,4′S,5′R)-6-chloro-4′-(3-chloro-2-fluoro-phenyl)-2′-(2,2-dimethyl-propyl)-2-oxo-1,2-dihydro-spiro[indole-3,3′-pyrrolidine]-5′-carboxylic acid (4-carbamoyl-2-methoxy-phenyl)-amide] | 14 nM
5 | CC(C)(C)C[C@@H]1N[C@@H](C(=O)Nc2ccc(C#N)cc2)[C@H](c2cccc(Cl)c2)[C@]12C(=O)Nc1cc(Cl)ccc12 (racemic) [Example 64, rac-(2′S,3′R,4′R,5′R)-6-chloro-4′-(3-chloro-phenyl)-2′-(2,2-dimethyl-propyl)-2-oxo-1,2-dihydro-spiro[indole-3,3′-pyrrolidine]-5′-carboxylic acid (4-cyano-phenyl)-amide] | 34 nM
6 | CC(C)(C)C[C@@H]1N[C@@H](C(=O)Nc2ccc(C(N)=O)cc2)[C@H](c2cccc(Cl)c2)[C@]12C(=O)Nc1cc(Cl)ccc12 (racemic) [Example 65A, rac-(2′S,3′R,4′R,5′R)-6-chloro-4′-(3-chloro-phenyl)-2′-(2,2-dimethyl-propyl)-2-oxo-1,2-dihydro-spiro[indole-3,3′-pyrrolidine]-5′-carboxylic acid (4-carbamoyl-phenyl)-amide] | 9 nM
7 | COc1cc(C#N)ccc1NC(=O)[C@@H]1N[C@@H](CC(C)(C)C)[C@@]2(C(=O)Nc3cc(Cl)ccc32)[C@H]1c1cccc(Cl)c1 (racemic) [Example 66, rac-(2′S,3′R,4′R,5′R)-6-chloro-4′-(3-chloro-phenyl)-2′-(2,2-dimethyl-propyl)-2-oxo-1,2-dihydro-spiro[indole-3,3′-pyrrolidine]-5′-carboxylic acid (4-cyano-2-methoxy-phenyl)-amide] | 14 nM
8 | COc1cc(C(N)=O)ccc1NC(=O)[C@@H]1N[C@@H](CC(C)(C)C)[C@@]2(C(=O)Nc3cc(Cl)ccc32)[C@H]1c1cccc(Cl)c1 (racemic) [Example 67, rac-(2′S,3′R,4′R,5′R)-6-chloro-4′-(3-chloro-phenyl)-2′-(2,2-dimethyl-propyl)-2-oxo-1,2-dihydro-spiro[indole-3,3′-pyrrolidine]-5′-carboxylic acid (4-carbamoyl-2-methoxy-phenyl)-amide] | 10 nM
9 | CC(C)(C)C[C@@H]1N[C@@H](C(=O)Nc2ccc(C#N)cc2)[C@H](c2cccc(Cl)c2F)[C@]12C(=O)Nc1cc(Cl)cc(F)c12 (racemic) [Example 72, rac-(2′S,3′R,4′S,5′R)-6-chloro-4′-(3-chloro-2-fluoro-phenyl)-2′-(2,2-dimethyl-propyl)-4-fluoro-2-oxo-1,2-dihydro-spiro[indole-3,3′-pyrrolidine]-5′-carboxylic acid (4-cyano-phenyl)-amide] | 22 nM
10 | CC(C)(C)C[C@@H]1N[C@@H](C(=O)Nc2ccc(C(N)=O)cc2)[C@H](c2cccc(Cl)c2F)[C@]12C(=O)Nc1cc(Cl)cc(F)c12 (racemic) [Example 73, rac-(2′S,3′R,4′S,5′R)-6-chloro-4′-(3-chloro-2-fluoro-phenyl)-2′-(2,2-dimethyl-propyl)-4-fluoro-2-oxo-1,2-dihydro-spiro[indole-3,3′-pyrrolidine]-5′-carboxylic acid (4-carbamoyl-phenyl)-amide] | 11 nM
11 | COc1cc(C#N)ccc1NC(=O)[C@@H]1N[C@@H](CC(C)(C)C)[C@@]2(C(=O)Nc3cc(Cl)cc(F)c32)[C@H]1c1cccc(Cl)c1F (racemic) [Example 75, rac-(2′S,3′R,4′S,5′R)-6-chloro-4′-(3-chloro-2-fluoro-phenyl)-2′-(2,2-dimethyl-propyl)-4-fluoro-2-oxo-1,2-dihydro-spiro[indole-3,3′-pyrrolidine]-5′-carboxylic acid (4-cyano-2-methoxy-phenyl)-amide] | 20 nM
12 | COc1cc(C(N)=O)ccc1NC(=O)[C@@H]1N[C@@H](CC(C)(C)C)[C@@]2(C(=O)Nc3cc(Cl)cc(F)c32)[C@H]1c1cccc(Cl)c1F (racemic) [Example 76, rac-(2′S,3′R,4′S,5′R)-6-chloro-4′-(3-chloro-2-fluoro-phenyl)-2′-(2,2-dimethyl-propyl)-4-fluoro-2-oxo-1,2-dihydro-spiro[indole-3,3′-pyrrolidine]-5′-carboxylic acid (4-carbamoyl-2-methoxy-phenyl)-amide] | 11 nM
13 | CC(C)(C)C[C@@H]1N[C@@H](C(=O)Nc2ccc(C(N)=O)cc2F)[C@H](c2cccc(Cl)c2F)[C@]12C(=O)Nc1cc(Cl)cc(F)c12 (racemic) [Example 79, rac-(2′S,3′R,4′S,5′R)-6-chloro-4′-(3-chloro-2-fluoro-phenyl)-2′-(2,2-dimethyl-propyl)-4-fluoro-2-oxo-1,2-dihydro-spiro[indole-3,3′-pyrrolidine]-5′-carboxylic acid (4-carbamoyl-2-fluoro-phenyl)-amide] | 13 nM
14 | CC(C)(C)C[C@@H]1N[C@@H](C(=O)Nc2ccc(C#N)cc2)[C@H](c2ccc(F)c(Cl)c2)[C@]12C(=O)Nc1cc(Cl)ccc12 (racemic) [Example 83, rac-(2′S,3′R,4′R,5′R)-6-chloro-4′-(3-chloro-4-fluoro-phenyl)-2′-(2,2-dimethyl-propyl)-2-oxo-1,2-dihydro-spiro[indole-3,3′-pyrrolidine]-5′-carboxylic acid (4-cyano-phenyl)-amide] | 34 nM
15 | CC(C)(C)C[C@@H]1N[C@@H](C(=O)Nc2ccc(C(N)=O)cc2)[C@H](c2ccc(F)c(Cl)c2)[C@]12C(=O)Nc1cc(Cl)ccc12 (racemic) [Example 84, rac-(2′S,3′R,4′R,5′R)-6-chloro-4′-(3-chloro-4-fluoro-phenyl)-2′-(2,2-dimethyl-propyl)-2-oxo-1,2-dihydro-spiro[indole-3,3′-pyrrolidine]-5′-carboxylic acid (4-carbamoyl-phenyl)-amide] | 15 nM
16 | CC(C)(C)C[C@@H]1N[C@@H](C(=O)Nc2ccc(C#N)cc2)[C@H](c2cc(F)cc(Cl)c2)[C@]12C(=O)Nc1cc(Cl)ccc12 (racemic) [Example 88, rac-(2′S,3′R,4′R,5′R)-6-chloro-4′-(3-chloro-5-fluoro-phenyl)-2′-(2,2-dimethyl-propyl)-2-oxo-1,2-dihydro-spiro[indole-3,3′-pyrrolidine]-5′-carboxylic acid (4-cyano-phenyl)-amide] | 13 nM
17 | CC(C)(C)C[C@@H]1N[C@@H](C(=O)Nc2ccc(C(N)=O)cc2)[C@H](c2cc(F)cc(Cl)c2)[C@]12C(=O)Nc1cc(Cl)ccc12 (racemic) [Example 89] | 13 nM
18 | CC(C)(C)C[C@@H]1N[C@@H](C(=O)Nc2ccc(C(N)=O)cc2)[C@H](c2cccc(Cl)c2F)[C@]12C(=O)Nc1cc(Br)ccc12 (racemic) [Example 94, rac-(2′S,3′R,4′S,5′R)-6-bromo-4′-(3-chloro-2-fluoro-phenyl)-2′-(2,2-dimethyl-propyl)-2-oxo-1,2-dihydro-spiro[indole-3,3′-pyrrolidine]-5′-carboxylic acid (4-carbamoyl-phenyl)-amide] | 12 nM
19 | CC(C)(C)C[C@@H]1N[C@@H](C(=O)Nc2ccc(C#N)cc2)[C@H](c2cccc(Br)c2F)[C@]12C(=O)Nc1cc(Cl)ccc12 (racemic) [Example 98, rac-(2′S,3′R,4′S,5′R)-4′-(3-bromo-2-fluoro-phenyl)-6-chloro-2′-(2,2-dimethyl-propyl)-2-oxo-1,2-dihydro-spiro[indole-3,3′-pyrrolidine]-5′-carboxylic acid (4-cyano-phenyl)-amide] | 18 nM
20 | CC(C)(C)C[C@@H]1N[C@@H](C(=O)Nc2ccc(C(N)=O)cc2)[C@H](c2cccc(Br)c2F)[C@]12C(=O)Nc1cc(Cl)ccc12 (racemic) [Example 99, rac-(2′S,3′R,4′S,5′R)-4′-(3-bromo-2-fluoro-phenyl)-6-chloro-2′-(2,2-dimethyl-propyl)-2-oxo-1,2-dihydro-spiro[indole-3,3′-pyrrolidine]-5′-carboxylic acid (4-carbamoyl-phenyl)-amide] | 18 nM
